The record followed here is US6171809A, “Method and compositions for detecting luciferase biological samples” (priority 1998, dated 2001).

Experiment [1] deals with T1, human beta-2 adrenoceptor (Homo sapiens, UniProt P07550).
T1 construct: expressed in transfected cells; host or cells: CHO (Chinese hamster ovary) cells stably carrying a CRE-renilla luciferase reporter
As to the kind of experiment: Compound screening, renilla luciferase readout, CRE/firefly/V2 and CRE/ren/beta2 cells, beta2-adrenoceptor, Example 3. In kind it is cell-based. The method, then: (§1) Stable mammalian cell lines transfected with c-AMP responsive reporter genes containing either the firefly or renilla luciferase reporter proteins (CRE-firefly and CRE-ren) were generated.
(§2) These receptors are members of the super family of G-protein coupled receptors which interact with the stimulatory G-protein alpha unit.
Firefly luciferase and/or renilla luciferase producing CHO (Chinese hamster ovary) cells are cultured in tissue culture flasks and grown to 90% confluency. Twenty-four hours before the assay, the cells are quiesced in serum-free medium containing 1 mg/ml BSA (bovine serum albumin). Immediately prior to the assay, cells are removed with HBSS/EDTA (Hanks balanced salt solution containing EDTA), centrifuged and resuspended in 10 ml phenol red-free and serum-free medium supplemented with 1 mg/ml BSA. Next, the cells are plated into a 96 well microtiter plate at 90 μl/well and returned to the incubator. After 1 hour, 10 μl of the test compound, made up in either water or phenol red-free medium, is added. The microplates then are further incubated for 4 hours. Finally, the firefly luciferase detection reagent is made up and 100 μl of this detection solution is added to each well. After 10 minutes, the microplate is counted for firefly luciferase activity. […] The plate is left for 15 minutes in the dark and then counted for renilla luciferase activity. […]

In experiment [2] the test system is adenylcyclase. Description: Forskolin dose response, firefly luciferase reporter (CRE-firefly CHO cells mixed with CRE-ren cells), Example 1. Type of experiment: cell-based, Chinese hamster ovary. The following applies: 15 and 160 minutes after reagent addition; FIG. 1. The method, then:
A kit for the sequential detection of firefly luciferase and renilla luciferase was prepared which consisted of a firefly luciferase assay reagent and a renilla luciferase assay reagent. The firefly luciferase reagent consisted of AMP, EDTA, firefly luciferin, ATP, DTT, phenylacetic acid and oxalic acid as originally described in U.S. Pat. No. 5,618,682. Stable mammalian cell lines transfected with c-AMP responsive reporter genes containing either the firefly or renilla luciferase reporter proteins (CRE-firefly and CRE-ren) were generated. Firefly luciferase and/or renilla luciferase producing CHO (Chinese hamster ovary) cells are cultured in tissue culture flasks and grown to 90% confluency. Twenty-four hours before the assay, the cells are quiesced in serum-free medium containing 1 mg/ml BSA (bovine serum albumin). […] After 10 minutes, the microplate is counted for firefly luciferase activity. […] The plate is left for 15 minutes in the dark and then counted for renilla luciferase activity. […] The assay plates were counted in a TopCount™ Luminescence Counter (Packard Instrument Company) at 15 or 160 minutes after reagent addition. […] Furthermore, renilla luminescence generated using the composition of this invention, is 10-fold brighter than the firefly luciferase generated light signal.
(In general: Reporter assays use an easily measured gene product as a stand-in for the process of interest.)

The subject of another experiment is CHO cells. As to the kind of experiment: Compound screening, endogenous response of CHO cells (CRE/firefly/V2 and CRE/ren/beta2), Example 3. In kind it is cell-based, Chinese hamster ovary. The following applies: for firefly luciferase response (endogenous): firefly luciferase detection reagent; for agonist activity at these cells: CRE/firefly/V2 and CRE/ren/beta2 cells. The protocol: as §1, §2
Firefly luciferase and/or renilla luciferase producing CHO (Chinese hamster ovary) cells are cultured in tissue culture flasks and grown to 90% confluency. Twenty-four hours before the assay, the cells are quiesced in serum-free medium containing 1 mg/ml BSA (bovine serum albumin). Immediately prior to the assay, cells are removed with HBSS/EDTA (Hanks balanced salt solution containing EDTA), centrifuged and resuspended in 10 ml phenol red-free and serum-free medium supplemented with 1 mg/ml BSA. Next, the cells are plated into a 96 well microtiter plate at 90 μl/well and returned to the incubator. After 1 hour, 10 μl of the test compound, made up in either water or phenol red-free medium, is added. The microplates then are further incubated for 4 hours. Finally, the firefly luciferase detection reagent is made up and 100 μl of this detection solution is added to each well. After 10 minutes, the microplate is counted for firefly luciferase activity. Next, to each well, 100 μl/well of 5 μM of coelenterazine in 2 mM EDTA buffer solution is added. The plate is left for 15 minutes in the dark and then counted for renilla luciferase activity.
CRE/firefly/V2 and CRE/ren/beta2 cells were mixed and plated into individual wells of a black 96-well ViewPlate and a range of compounds were applied to the cells.

Experiment [3] relates to adenylcyclase. As to the kind of experiment: Forskolin dose response, renilla luciferase reporter (CRE-ren CHO cells mixed with CRE-firefly cells), Example 1. In kind it is cell-based, Chinese hamster ovary. The protocol: A kit for the sequential detection of firefly luciferase and renilla luciferase was prepared which consisted of a firefly luciferase assay reagent and a renilla luciferase assay reagent. The renilla luciferase reagent consisted of 5 μM of coelenterazine in 2 mM EDTA buffer with a pH 7.5. Stable mammalian cell lines transfected with c-AMP responsive reporter genes containing either the firefly or renilla luciferase reporter proteins (CRE-firefly and CRE-ren) were generated. Firefly luciferase and/or renilla luciferase producing CHO (Chinese hamster ovary) cells are cultured in tissue culture flasks and grown to 90% confluency. Twenty-four hours before the assay, the cells are quiesced in serum-free medium containing 1 mg/ml BSA (bovine serum albumin). Immediately prior to the assay, cells are removed with HBSS/EDTA (Hanks balanced salt solution containing EDTA), centrifuged and resuspended in 10 ml phenol red-free and serum-free medium supplemented with 1 mg/ml BSA. Next, the cells are plated into a 96 well microtiter plate at 90 μl/well and returned to the incubator. After 1 hour, 10 μl of the test compound, made up in either water or phenol red-free medium, is added. The microplates then are further incubated for 4 hours. Finally, the firefly luciferase detection reagent is made up and 100 μl of this detection solution is added to each well. After 10 minutes, the microplate is counted for firefly luciferase activity. Next, to each well, 100 μl/well of 5 μM of coelenterazine in 2 mM EDTA buffer solution is added. The plate is left for 15 minutes in the dark and then counted for renilla luciferase activity. CRE-ren cells were stimulated with 10 μM forskolin, a compound which directly activates adenylcyclase to cause an increase in the level of […] cAMP. […] The assay plates were counted in a TopCount™ Luminescence Counter (Packard Instrument Company) at 15 or 160 minutes after reagent addition. […] Furthermore, renilla luminescence generated using the composition of this invention, is 10-fold brighter than the firefly luciferase generated light signal.

For experiment [4], the target named is T1, human beta-2 adrenoceptor. Description: beta2-adrenoceptor dose response, renilla luciferase readout after renilla detection reagent (CRE/ren/beta2 cells mixed with CRE/firefly/V2 cells), Example 2. Type of experiment: cell-based. The method, then: as §1, §2
Firefly luciferase and/or renilla luciferase producing CHO (Chinese hamster ovary) cells are cultured in tissue culture flasks and grown to 90% confluency. Twenty-four hours before the assay, the cells are quiesced in serum-free medium containing 1 mg/ml BSA (bovine serum albumin). Immediately prior to the assay, cells are removed with HBSS/EDTA (Hanks balanced salt solution containing EDTA), centrifuged and resuspended in 10 ml phenol red-free and serum-free medium supplemented with 1 mg/ml BSA. Next, the cells are plated into a 96 well microtiter plate at 90 μl/well and returned to the incubator. After 1 hour, 10 μl of the test compound, made up in either water or phenol red-free medium, is added. The microplates then are further incubated for 4 hours. Finally, the firefly luciferase detection reagent is made up and 100 μl of this detection solution is added to each well. After 10 minutes, the microplate is counted for firefly luciferase activity. […] The plate is left for 15 minutes in the dark and then counted for renilla luciferase activity.

Where no end group is shown, it is not given here.

T1 sequence (P07550 whole entry): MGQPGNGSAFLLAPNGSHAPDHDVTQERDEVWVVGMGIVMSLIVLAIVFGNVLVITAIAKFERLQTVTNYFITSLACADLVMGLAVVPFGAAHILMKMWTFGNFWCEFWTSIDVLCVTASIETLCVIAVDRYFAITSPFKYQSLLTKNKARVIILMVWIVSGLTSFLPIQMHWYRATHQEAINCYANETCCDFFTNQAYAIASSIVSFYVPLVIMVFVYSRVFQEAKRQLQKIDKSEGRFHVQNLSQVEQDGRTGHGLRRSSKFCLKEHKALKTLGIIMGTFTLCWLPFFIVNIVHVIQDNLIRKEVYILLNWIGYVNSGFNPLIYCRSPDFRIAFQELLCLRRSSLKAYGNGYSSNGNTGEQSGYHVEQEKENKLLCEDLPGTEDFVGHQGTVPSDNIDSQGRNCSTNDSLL

As to `NC(=O)CC[C@@H]1NC(=O)[C@H](Cc2ccccc2)NC(=O)[C@H](Cc2ccc(O)cc2)NC(=O)CCSSC[C@@H](C(=O)N2CCC[C@H]2C(=O)N[C@H](CCCN=C(N)N)C(=O)NCC(N)=O)NC(=O)[C@H](CC(N)=O)NC1=O` [desmopressin], the “luminescence signal following addition of renilla luciferase detection reagent” value in experiment [1] is “not significantly above basal”.
As for `C=C[C@@]1(C)CC(=O)[C@]2(O)[C@@]3(C)[C@@H](O)CCC(C)(C)[C@@H]3[C@H](O)[C@H](OC(C)=O)[C@@]2(C)O1` [forskolin], the “nature of the firefly luminescence” value with adenylcyclase [2] is “identical at 15 and 160 minutes after reagent addition”. Further, in the experiment with CHO cells, the “action on CHO cells (conclusion)” value was “act on CHO cells to generate an endogenous response”, the “firefly luciferase response (endogenous)” value is “a firefly luciferase response was obtained” and the “luminescent signal following addition of renilla luciferase detection reagent (endogenous)” value is “A luminescent signal was maintained”. Further, in the experiment on adenylcyclase [3] (15 minutes after reagent addition), the “renilla luciferase luminometric response” value is listed as 3.5×10^6. Besides, in the experiment on adenylcyclase [3] (160 minutes after reagent addition), the “renilla luciferase luminometric response” value is 1.8×10^6. In the experiment with adenylcyclase [3] (renilla response, 15 versus 160 minutes), the “EC50 for forskolin stimulation of adenyl cyclase” value is recorded as “remains similar”.
Take `CC(C)C[C@H](NC(=O)[C@H](CCCCN)NC(=O)[C@H](CCCN=C(N)N)NC(=O)[C@H](C)NC(=O)[C@H](CO)NC(=O)[C@H](CCCCN)NC(=O)[C@H](CCCN=C(N)N)NC(=O)[C@H](C)NC(=O)CNC(=O)[C@@H](NC(=O)[C@H](Cc1ccccc1)NC(=O)CNC(=O)CNC(=O)[C@@H](N)Cc1ccccc1)[C@@H](C)O)C(=O)N[C@@H](C)C(=O)N[C@@H](CC(N)=O)C(=O)N[C@@H](CCC(N)=O)C(=O)O` [nociceptin]: the “agonist activity at these cells” value in the experiment with CHO cells was “not agonists active at these cells”.
In the case of `NCCc1c[nH]c2ccc(O)cc12` [serotonin], the “agonist activity at these cells” value in the experiment on CHO cells is recorded as “not agonists active at these cells”.
Turning to `NC(=O)CC[C@@H]1NC(=O)[C@H](Cc2ccccc2)NC(=O)[C@H](Cc2ccc(O)cc2)NC(=O)[C@@H](N)CSSC[C@@H](C(=O)N2CCC[C@H]2C(=O)N[C@@H](CCCN=C(N)N)C(=O)NCC(N)=O)NC(=O)[C@H](CC(N)=O)NC1=O` [vasopressin], the “stimulation of renilla luminescence” value in experiment [4] (FIG. 2) is listed as “did not stimulate renilla luminescence”. Besides, in experiment [4] (renilla detection reagent added to the same cells), the “response curve after subsequent addition of renilla detection reagent” value is reported as “flattened”. The “luminescence signal following addition of renilla luciferase detection reagent” value in experiment [1] is “not significantly above basal”.
In the case of “thyro-calcitonin (CGNLSTCMLGTYTQDFNKFHTFPQTAIGVGAP; ends and bridges not checked; cysteine pairing not given here; UniProt P01258 85-116, looked up) [CHO cells express an endogenous calcitonin receptor]”, in the experiment on CHO cells, the “action on CHO cells (conclusion)” value was “act on CHO cells to generate an endogenous response”, the “firefly luciferase response (endogenous)” value is “a firefly luciferase response was obtained” and the “luminescent signal following addition of renilla luciferase detection reagent (endogenous)” value is listed as “A luminescent signal was maintained”.
